# Reference: patent US8765728B2, “[1,5]-diazocin derivatives” (MelliTech, priority 2009, dated 2014)
# Test system: Min6 cell
# Experiment: Insulin secretion response of beta cell line to formula I compounds (insulin ELISA)
# Type: cell-based
# Conditions: rank according to % increase versus control at most effective dose
# Method: The secretory responses of beta cell lines to glucose were tested as described in Merglen et al. Endocrinology, (2004) 145(2):667-78.
# Briefly, after incubation with compounds from formula I or control vehicle, cells were maintained for 2 hours in glucose-free culture medium. The cells were then washed twice and preincubated for 30 minutes at 37° C. in glucose-free Krebs-Ringer bicarbonate HEPES buffer (KRBH: 135 mM NaCl, 3.6 mM KCl, 5 mM NaHCO3, 0.5 mM NaH2PO4, 0.5 mM MgCl2, 1.5 mM CaCl2, and 10 mM HEPES, pH 7.4). BSA (0.1%) was added as an insulin carrier. Cells were subsequently washed with glucose-free KRBH and then incubated for 30 minutes at 37° C. in KRBH containing different concentrations of glucose. The reaction was stopped by placing the plates on ice; supernatants were collected to determine insulin secretion and cells were used for intracellular insulin content following acid-ethanol extraction. Insulin was measured by ELISA (Linco) according to the manufacturer's instructions.
row,Compound,Insulin secretion (Min6 cell) Range 1 to 5
1,"COc1ccc2c(c1)CN(C1CC1)C(=O)CCN2CC(=O)c1ccccc1OC [Compound 13, 5-cyclopropyl-8-methoxy-1-(2-(2-methoxyphenyl)-2-oxoethyl)-2,3,5,6-tetrahydrobenzo[b][1,5]diazocin-4(1H)-one]",1 (1: 90-110% of control)
2,"COc1ccc2c(c1)CN(C1CC1)C(=O)CCN2CC(=O)c1ccc(Cl)cc1 [Compound 14, 1-(2-(4-chlorophenyl)-2-oxoethyl)-5-cyclopropyl-8-methoxy-2,3,5,6-tetrahydrobenzo[b][1,5]diazocin-4(1H)-one]",3 (3: 120-140% of control)
3,"COc1ccc2c(c1)CN(C1CC1)C(=O)CCN2CC(=O)c1ccc2c(c1)OCCO2 [Compound 15, 5-cyclopropyl-1-(2-(2,3-dihydrobenzo[b][1,4]dioxin-6-yl)-2-oxoethyl)-8-methoxy-2,3,5,6-tetrahydrobenzo[b][1,5]diazocin-4(1H)-one]",3 (3: 120-140% of control)
4,"COc1ccc2c(c1)CN(C1CC1)C(=O)CCN2CC(=O)c1ccc(N2CCCC2)cc1 [Compound 16, 5-cyclopropyl-8-methoxy-1-(2-oxo-2-(4-(pyrrolidin-1-yl)phenyl)ethyl)-2,3,5,6-tetrahydrobenzo[b][1,5]diazocin-4(1H)-one]",4 (4: 140-170% of control)
5,"COc1ccc2c(c1)CN(C1CC1)C(=O)CCN2CC(O)c1ccccc1 (centres unmarked) [Compound 17, 5-cyclopropyl-1-(2-hydroxy-2-phenylethyl)-8-methoxy-2,3,5,6-tetrahydrobenzo[b][1,5]diazocin-4(1H)-one]",2 (2: 110-120% of control)
6,"COc1ccc2c(c1)CN(C1CC1)C(=O)CCN2C[C@@H](O)COCc1ccccc1 [Compound 18, (R)-1-(3-(benzyloxy)-2-hydroxypropyl)-5-cyclopropyl-8-methoxy-2,3,5,6-tetrahydrobenzo[b][1,5]diazocin-4(1H)-one]",2 (2: 110-120% of control)
7,"O=C1CCN(C[C@@H](O)COCc2ccccc2)c2ccc(F)cc2CN1C1CC1 [Compound 19, (R)-1-(3-(benzyloxy)-2-hydroxypropyl)-5-cyclopropyl-8-fluoro-2,3,5,6-tetrahydrobenzo[b][1,5]diazocin-4(1H)-one]",1 (1: 90-110% of control)
8,"COc1cccc(C(=O)CN2CCC(=O)N(C3CC3)Cc3cc(OC)ccc32)c1 [Compound 20, 5-cyclopropyl-8-methoxy-1-(2-(3-methoxyphenyl)-2-oxoethyl)-2,3,5,6-tetrahydrobenzo[b][1,5]diazocin-4(1H)-one]",1 (1: 90-110% of control)
9,"COc1ccc(C(=O)CN2CCC(=O)N(C3CC3)Cc3cc(OC)ccc32)cc1 [Compound 21, 5-cyclopropyl-8-methoxy-1-(2-(4-methoxyphenyl)-2-oxoethyl)-2,3,5,6-tetrahydrobenzo[b][1,5]diazocin-4(1H)-one]",2 (2: 110-120% of control)
10,"COc1ccc2c(c1)CN(C1CC1)C(=O)CCN2CC(=O)c1cccc(F)c1 [Compound 22, 5-cyclopropyl-1-(2-(3-fluorophenyl)-2-oxoethyl)-8-methoxy-2,3,5,6-tetrahydrobenzo[b][1,5]diazocin-4(1H)-one]",2 (2: 110-120% of control)
11,"COc1ccc2c(c1)CN(C1CC1)C(=O)CCN2CC(=O)c1ccc(OC(F)(F)F)cc1 [Compound 23, 5-cyclopropyl-8-methoxy-1-(2-oxo-2-(4-(trifluoromethoxy)phenyl)ethyl)-2,3,5,6-tetrahydrobenzo[b][1,5]diazocin-4(1H)-one]",1 (1: 90-110% of control)
12,"COc1ccc2c(c1)CN(C1CC1)C(=O)CCN2CC(=O)c1ccc(F)c(F)c1 [Compound 24, 5-cyclopropyl-1-(2-(3,4-difluorophenyl)-2-oxoethyl)-8-methoxy-2,3,5,6-tetrahydrobenzo[b][1,5]diazocin-4(1H)-one]",2 (2: 110-120% of control)
13,"COc1ccc2c(c1)CN(C1CC1)C(=O)CCN2CC(O)c1cc(OC)ccc1OC (centres unmarked) [Compound 25, 5-cyclopropyl-1-(2-(2,5-dimethoxyphenyl)-2-hydroxyethyl)-8-methoxy-2,3,5,6-tetrahydrobenzo[b][1,5]diazocin-4(1H)-one]",2 (2: 110-120% of control)
14,"COc1ccc2c(c1)CN(C1CC1)C(=O)CCN2CC(O)c1ccccc1OC (centres unmarked) [Compound 26, 5-cyclopropyl-1-(2-hydroxy-2-(2-methoxyphenyl)ethyl)-8-methoxy-2,3,5,6-tetrahydrobenzo[b][1,5]diazocin-4(1H)-one]",2 (2: 110-120% of control)
15,"COc1ccc2c(c1)CN(C1CC1)C(=O)CCN2CC(O)c1ccc(Cl)cc1 (centres unmarked) [Compound 27, 1-(2-(4-chlorophenyl)-2-hydroxyethyl)-5-cyclopropyl-8-methoxy-2,3,5,6-tetrahydrobenzo[b][1,5]diazocin-4(1H)-one]",4 (4: 140-170% of control)
16,"COc1ccc2c(c1)CN(C1CC1)C(=O)CCN2CC(O)c1ccc(N2CCCC2)cc1 (centres unmarked) [Compound 28, 5-cyclopropyl-1-(2-hydroxy-2-(4-(pyrrolidin-1-yl)phenyl)ethyl)-8-methoxy-2,3,5,6-tetrahydrobenzo[b][1,5]diazocin-4(1H)-one]",3 (3: 120-140% of control)
17,"COc1ccc2c(c1)CN(C1CC1)C(=O)CCN2CC(O)c1ccc2c(c1)OCCO2 (centres unmarked) [Compound 29, 5-cyclopropyl-1-(2-(2,3-dihydrobenzo[b][1,4]dioxin-6-yl)-2-hydroxyethyl)-8-methoxy-2,3,5,6-tetrahydrobenzo[b][1,5]diazocin-4(1H)-one]",2 (2: 110-120% of control)
18,"COc1cccc(C(O)CN2CCC(=O)N(C3CC3)Cc3cc(OC)ccc32)c1 (centres unmarked) [Compound 30, 5-cyclopropyl-1-(2-hydroxy-2-(3-methoxyphenyl)ethyl)-8-methoxy-2,3,5,6-tetrahydrobenzo[b][1,5]diazocin-4(1H)-one]",1 (1: 90-110% of control)
19,"COc1ccc2c(c1)CN(C1CC1)C(=O)CCN2CC(O)c1cccc(F)c1 (centres unmarked) [Compound 31, 5-cyclopropyl-1-(2-(3-fluorophenyl)-2-hydroxyethyl)-8-methoxy-2,3,5,6-tetrahydrobenzo[b][1,5]diazocin-4(1H)-one]",1 (1: 90-110% of control)
20,"COc1ccc(C(O)CN2CCC(=O)N(C3CC3)Cc3cc(OC)ccc32)cc1 (centres unmarked) [Compound 32, 5-cyclopropyl-1-(2-hydroxy-2-(4-methoxyphenyl)ethyl)-8-methoxy-2,3,5,6-tetrahydrobenzo[b][1,5]diazocin-4(1H)-one]",3 (3: 120-140% of control)
21,"COc1ccc2c(c1)CN(C1CC1)C(=O)CCN2CC(O)c1ccc(OC(F)(F)F)cc1 (centres unmarked) [Compound 33, 5-cyclopropyl-1-(2-hydroxy-2-(4-(trifluoromethoxy)phenyl)ethyl)-8-methoxy-2,3,5,6-tetrahydrobenzo[b][1,5]diazocin-4(1H)-one]",2 (2: 110-120% of control)
22,"COc1ccc2c(c1)CN(C1CC1)C(=O)CCN2CC(O)c1ccc(F)c(F)c1 (centres unmarked) [Compound 34, 5-cyclopropyl-1-(2-(3,4-difluorophenyl)-2-hydroxyethyl)-8-methoxy-2,3,5,6-tetrahydrobenzo[b][1,5]diazocin-4(1H)-one]",1 (1: 90-110% of control)
23,"O=C(CN1CCC(=O)N(C2CC2)Cc2cc(F)ccc21)c1ccccc1 [Compound 35, 5-cyclopropyl-8-fluoro-1-(2-oxo-2-phenylethyl)-2,3,5,6-tetrahydrobenzo[b][1,5]diazocin-4(1H)-one]",1 (1: 90-110% of control)
24,"COc1ccccc1C(=O)CN1CCC(=O)N(C2CC2)Cc2cc(F)ccc21 [Compound 36, 5-cyclopropyl-8-fluoro-1-(2-(2-methoxyphenyl)-2-oxoethyl)-2,3,5,6-tetrahydrobenzo[b][1,5]diazocin-4(1H)-one]",2 (2: 110-120% of control)
25,"COc1cccc(C(=O)CN2CCC(=O)N(C3CC3)Cc3cc(F)ccc32)c1 [Compound 37, 5-cyclopropyl-8-fluoro-1-(2-(3-methoxyphenyl)-2-oxoethyl)-2,3,5,6-tetrahydrobenzo[b][1,5]diazocin-4(1H)-one]",4 (4: 140-170% of control)
26,"COc1ccc(C(=O)CN2CCC(=O)N(C3CC3)Cc3cc(F)ccc32)cc1 [Compound 38, 5-cyclopropyl-8-fluoro-1-(2-(4-methoxyphenyl)-2-oxoethyl)-2,3,5,6-tetrahydrobenzo[b][1,5]diazocin-4(1H)-one]",1 (1: 90-110% of control)
27,"COc1ccc(OC)c(C(=O)CN2CCC(=O)N(C3CC3)Cc3cc(F)ccc32)c1 [Compound 39, 5-cyclopropyl-1-(2-(2,5-dimethoxyphenyl)-2-oxoethyl)-8-fluoro-2,3,5,6-tetrahydrobenzo[b][1,5]diazocin-4(1H)-one]",3 (3: 120-140% of control)
28,"O=C(CN1CCC(=O)N(C2CC2)Cc2cc(F)ccc21)c1ccc(F)cc1 [Compound 40, 5-cyclopropyl-8-fluoro-1-(2-(4-fluorophenyl)-2-oxoethyl)-2,3,5,6-tetrahydrobenzo[b][1,5]diazocin-4(1H)-one]",3 (3: 120-140% of control)
29,"O=C(CN1CCC(=O)N(C2CC2)Cc2cc(F)ccc21)c1cccc(F)c1 [Compound 41, 5-cyclopropyl-8-fluoro-1-(2-(3-fluorophenyl)-2-oxoethyl)-2,3,5,6-tetrahydrobenzo[b][1,5]diazocin-4(1H)-one]",3 (3: 120-140% of control)
